According to patent publication US20250064867A1, “METHOD FOR PREVENTING OR TREATING MUSCLE DISEASE” (KOREA RESEARCH INSTITUTE OF BIOSCIENCE AND BIOTECHNOLOGY, priority 2018, published 2025):

System: C2C12 myoblasts
Experiment: WST-1 cytotoxicity assay on C2C12
Format: cell-based, mouse
Conditions: 24 hours
Procedure: First, mouse skeletal muscle C2C12 cell line (CRL-1772, ATCC, Manassas, VA, USA) was purchased and used. To assess the cytotoxicity of dexamethasone and HB05P on C2C12, a WST-1 assay (Cell Proliferation Reagent WST-1, 5015944001, Roche, Basel, Switzerland) was performed. Myoblasts (C2C12) were dispensed at a density of 2.0×10^4 cells/well into 96-well plates (Corning® 96-well Clear Polystyrene Microplates, 3598, Corning, Glendale, AZ, USA) and cultured at 37° C. in 5% CO2 conditions for 24 hours. The cultured cells were then treated with varying concentrations of dexamethasone (0, 250, 500, 750, 1000 μM) and HB05P (0, 1.0×10^3, 1.0×10^4, 1.0×10^5, 1.0×10^6, 1.0×10^7 cells/well). After 24 hours of incubation, cell viability was measured using a VersaMax Microplate Reader (Molecular devices, San Jose, CA, USA).

## C[C@@H]1C[C@H]2[C@@H]3CCC4=CC(=O)C=C[C@]4(C)[C@@]3(F)[C@@H](O)C[C@]2(C)[C@@]1(O)C(=O)CO [dexamethasone]
0, 250, 500, 750, 1000 μM
  cell viability, trend over concentration: concentration-dependent decrease
250 μM, untreated = 100%
  cell viability: 66.6%
